Drawing on patent US20080269266A1, “NOVEL COMPOUNDS 747” (ASTRAZENECA AB, priority 2007, published 2008), this text covers IC50 and Solubility for two compounds.

pIC50: −log10 of the molar value.

For data set [1], the target named is T1, human cytochrome P450 (CYP) 2C19 (Homo sapiens, UniProt P33261).
T1 construct: made in house; host or cells: yeast cell lines (microsomal fractions)
The data set can be described thus: Cytochrome P450 Inhibition Assay 2C19. The following applies: read-out: IC50 range, CYP 2C19. It counts as in vitro ADME. The method, then: The inhibitory potential (IC50) of test compounds against 5 human cytochrome P450 (CYP) isoforms (1A2, 2C9, 2C19, 3A4 and 2D6) was assessed using an automated fluorescent end point in vitro assay modified from Crespi (Crespi and Stresser, 2000). Microsomal subcellular fractions prepared from Yeast cell lines expressing each human CYP isoform were used as an enzyme source in this assay. The activity of the 5 major human CYPs was determined from the biotransformation of a number of coumarin substrates to fluorescent metabolites, in the presence of NADPH. […] Stock solutions of each CYP, with its respective substrate, were prepared in phosphate buffer pH7.4 (see Table 1) and 178 μl was added to the well of a black solid, flat bottom, 300 μl 96 well is microtitre plate (Corning Costar). […] After pre-incubating at 37° C. for 5 min the reactions were started with addition of NADPH (20 μl, concentration shown in Table 1). The final solvent content in each incubation was <=2% (1% from the test compound and a maximum of 1% from the substrate). The appropriate solvent controls and substrate blanks were included in each experiment to assess control activity and identify any inherent fluorescence due to the test compounds. In addition, known inhibitors of each CYP were included as positive controls (see Table 3 for inhibitor concentrations and expected IC50 ranges). The reactions were stopped at defined timepoints (see Table 1) by quenching with 100 μl of solvent (acetonitrile:0.5M Tris buffer 80:20 v/v). The plates were read on a fluorimeter (Spectrafluor Plus) at the appropriate excitation and emission wavelengths (listed in Table 2) and the percent activity, corrected for control, was plotted against the test compound concentration.

A short description of data set [2]: Solubility in 0.1 M phosphate buffer pH 7.4. It counts as physicochemical. The following applies: pH 7.4, 24 h, 25° C. The method, then: Solubility values are determined by agitation of compounds in 0.1 M phosphate buffer at pH 7.4 for 24 h at 25° C. The supernatant is separated from undissolved material by double centrifugation and subsequently analyzed and quantified against a standard of known concentration in DMSO using generic HPLC-UV methodology coupled with mass spectral peak identification (J. Med. Chem., 2006, 49(23), 6672-6682).

T1 sequence (P33261 whole entry): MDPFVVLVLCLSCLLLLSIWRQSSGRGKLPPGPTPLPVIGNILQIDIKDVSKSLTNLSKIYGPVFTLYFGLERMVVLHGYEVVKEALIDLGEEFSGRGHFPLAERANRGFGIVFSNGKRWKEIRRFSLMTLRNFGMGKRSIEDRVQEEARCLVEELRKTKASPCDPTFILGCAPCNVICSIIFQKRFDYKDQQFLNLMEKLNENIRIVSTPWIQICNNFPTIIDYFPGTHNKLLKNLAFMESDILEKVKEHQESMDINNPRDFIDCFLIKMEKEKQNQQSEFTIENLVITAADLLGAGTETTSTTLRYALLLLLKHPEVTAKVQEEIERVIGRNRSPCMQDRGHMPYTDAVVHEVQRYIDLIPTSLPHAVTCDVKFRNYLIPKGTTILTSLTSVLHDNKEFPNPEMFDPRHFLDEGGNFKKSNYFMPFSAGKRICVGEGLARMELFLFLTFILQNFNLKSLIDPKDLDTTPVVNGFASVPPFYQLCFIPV

Turning to `COc1ccc2[nH]c([S+]([O-])Cc3ncc(C)c(OC)c3C)nc2c1` (centres unmarked) [Omeprazole], the pIC50 in data set [1] is 5.34 to 5.82. `COc1cc(Nc2cc(C)n[nH]2)nc(N2CCC[C@H]2c2cc(-c3ncccn3)no2)n1` [mixture of Forms 1 and 3, (S)-6-Methoxy-2-{2-[3-(pyrimid-2-yl)isoxazol-5-yl]pyrrolidin-1-yl}-4-(5-methyl-1H-pyrazol-3-ylamino)pyrimidine]: the Solubility result in data set [2] was “around 18 μM”.

Usually pIC50 stands for −log10 of the IC50, conventionally taken in molar units.
